# Calls of active or inactive are those of the source. Rule as the data show it, for most assays here: actives have a measured EC50 and inactives only a lower limit.
# Legend:
# [1] = target: T1, Corticotropin-releasing factor receptor 2/Corticotropin-releasing factor-binding protein (Homo sapiens, UniProt P24387+Q13324); experiment: Dose Response confirmation of uHTS hits for small molecule antagonists of the CRF-binding protein and CRF-R2 receptor complex.; assay type: functional; details: read-out: IC50_Mean
# T1 sequence (Q13324 whole entry): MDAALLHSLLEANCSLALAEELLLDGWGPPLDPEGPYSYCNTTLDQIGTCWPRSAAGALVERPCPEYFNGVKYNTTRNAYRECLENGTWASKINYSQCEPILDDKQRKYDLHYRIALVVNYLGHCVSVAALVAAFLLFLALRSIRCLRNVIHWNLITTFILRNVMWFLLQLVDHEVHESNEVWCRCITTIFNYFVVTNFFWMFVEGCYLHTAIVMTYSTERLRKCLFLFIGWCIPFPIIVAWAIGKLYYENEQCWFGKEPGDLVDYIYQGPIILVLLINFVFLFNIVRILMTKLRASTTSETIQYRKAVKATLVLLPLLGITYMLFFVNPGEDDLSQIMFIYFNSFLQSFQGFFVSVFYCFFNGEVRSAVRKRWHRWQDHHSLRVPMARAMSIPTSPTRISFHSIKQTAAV
# T1 sequence (P24387 whole entry): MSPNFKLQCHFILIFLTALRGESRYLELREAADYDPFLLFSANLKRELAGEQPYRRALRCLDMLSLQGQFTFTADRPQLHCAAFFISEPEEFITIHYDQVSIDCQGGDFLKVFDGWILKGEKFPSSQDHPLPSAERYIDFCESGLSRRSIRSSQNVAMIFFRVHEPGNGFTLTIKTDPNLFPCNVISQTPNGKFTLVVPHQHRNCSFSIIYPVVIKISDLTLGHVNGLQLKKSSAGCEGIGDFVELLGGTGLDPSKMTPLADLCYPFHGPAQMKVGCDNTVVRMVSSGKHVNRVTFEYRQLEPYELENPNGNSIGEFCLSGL
# [2] = target: T1, Corticotropin-releasing factor receptor 2/Corticotropin-releasing factor-binding protein; experiment: activators of CRF receptor 2 with binding protein – uHTS hits, confirmation (AID 602473); assay type: functional; details: read-out: EC50_Mean
# [3] = target: T2, Replicative DNA helicase DnaB (Mycobacterium tuberculosis, UniProt P9WMR3); experiment: DnaB intein splicing inhibitors, dose response, biochemical, cell-free fluorescence (AID 449749); assay type: functional
# T2 sequence (P9WMR3 whole entry): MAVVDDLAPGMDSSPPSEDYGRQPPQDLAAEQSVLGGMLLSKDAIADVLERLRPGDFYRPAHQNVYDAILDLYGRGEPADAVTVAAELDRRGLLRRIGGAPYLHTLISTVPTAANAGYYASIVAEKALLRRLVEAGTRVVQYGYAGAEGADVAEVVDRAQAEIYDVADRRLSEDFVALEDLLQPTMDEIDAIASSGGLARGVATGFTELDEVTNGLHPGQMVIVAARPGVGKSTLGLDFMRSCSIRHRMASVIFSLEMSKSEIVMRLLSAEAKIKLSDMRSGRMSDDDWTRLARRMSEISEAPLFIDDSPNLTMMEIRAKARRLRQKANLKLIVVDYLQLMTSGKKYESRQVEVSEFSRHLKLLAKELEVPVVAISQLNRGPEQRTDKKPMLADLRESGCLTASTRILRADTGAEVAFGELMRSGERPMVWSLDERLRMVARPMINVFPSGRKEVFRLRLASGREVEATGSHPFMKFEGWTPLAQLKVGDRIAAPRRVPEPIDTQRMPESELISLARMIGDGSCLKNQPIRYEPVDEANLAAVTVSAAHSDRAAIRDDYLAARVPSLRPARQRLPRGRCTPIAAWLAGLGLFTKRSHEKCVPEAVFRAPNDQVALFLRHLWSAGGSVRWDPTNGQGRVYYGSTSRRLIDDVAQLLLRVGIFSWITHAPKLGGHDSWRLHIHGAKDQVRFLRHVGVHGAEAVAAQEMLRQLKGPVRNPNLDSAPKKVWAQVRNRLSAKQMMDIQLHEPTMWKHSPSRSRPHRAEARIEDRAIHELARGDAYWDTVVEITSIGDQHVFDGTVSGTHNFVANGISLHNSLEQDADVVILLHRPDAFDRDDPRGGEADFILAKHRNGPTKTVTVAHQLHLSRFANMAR
# Protein RecA = target: T3, Protein RecA (Mycobacterium tuberculosis, UniProt P9WHJ3); experiment: Fluorescence Cell-Free Homogeneous Dose Retest to Identify Inhibitors of RecA-Intein Splicing Activity. [Related pubchem assays (depositor defined):AID2097, AID2223, AID489010, AID492950]; assay type: functional
# T3 sequence (P9WHJ3 whole entry): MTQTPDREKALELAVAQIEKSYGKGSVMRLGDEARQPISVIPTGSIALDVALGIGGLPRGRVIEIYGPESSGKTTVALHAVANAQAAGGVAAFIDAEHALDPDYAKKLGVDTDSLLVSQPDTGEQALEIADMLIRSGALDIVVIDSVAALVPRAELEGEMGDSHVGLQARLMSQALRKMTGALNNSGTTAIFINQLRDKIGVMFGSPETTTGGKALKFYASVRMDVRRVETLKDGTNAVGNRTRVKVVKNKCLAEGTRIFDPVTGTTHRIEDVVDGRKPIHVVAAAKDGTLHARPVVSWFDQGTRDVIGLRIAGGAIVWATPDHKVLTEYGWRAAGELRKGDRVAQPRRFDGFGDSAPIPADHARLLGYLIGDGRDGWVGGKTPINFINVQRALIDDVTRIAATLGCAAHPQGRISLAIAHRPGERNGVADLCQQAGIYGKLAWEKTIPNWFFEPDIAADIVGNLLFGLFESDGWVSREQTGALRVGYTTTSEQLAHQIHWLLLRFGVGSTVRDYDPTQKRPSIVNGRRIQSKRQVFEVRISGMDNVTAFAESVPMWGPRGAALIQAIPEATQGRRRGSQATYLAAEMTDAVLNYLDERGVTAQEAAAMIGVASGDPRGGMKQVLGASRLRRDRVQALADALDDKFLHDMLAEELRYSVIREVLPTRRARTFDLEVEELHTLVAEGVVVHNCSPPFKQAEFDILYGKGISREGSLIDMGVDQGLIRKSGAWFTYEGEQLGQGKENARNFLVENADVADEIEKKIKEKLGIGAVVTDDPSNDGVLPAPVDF
# Cytochrome P450 2D6 = Cytochrome P450 2D6 (Homo sapiens, UniProt P10635);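 also: CYP2D6 member of a cytochrome P450 panel assay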
# Chain of Cytochrome P450 2D6 (P10635 whole entry): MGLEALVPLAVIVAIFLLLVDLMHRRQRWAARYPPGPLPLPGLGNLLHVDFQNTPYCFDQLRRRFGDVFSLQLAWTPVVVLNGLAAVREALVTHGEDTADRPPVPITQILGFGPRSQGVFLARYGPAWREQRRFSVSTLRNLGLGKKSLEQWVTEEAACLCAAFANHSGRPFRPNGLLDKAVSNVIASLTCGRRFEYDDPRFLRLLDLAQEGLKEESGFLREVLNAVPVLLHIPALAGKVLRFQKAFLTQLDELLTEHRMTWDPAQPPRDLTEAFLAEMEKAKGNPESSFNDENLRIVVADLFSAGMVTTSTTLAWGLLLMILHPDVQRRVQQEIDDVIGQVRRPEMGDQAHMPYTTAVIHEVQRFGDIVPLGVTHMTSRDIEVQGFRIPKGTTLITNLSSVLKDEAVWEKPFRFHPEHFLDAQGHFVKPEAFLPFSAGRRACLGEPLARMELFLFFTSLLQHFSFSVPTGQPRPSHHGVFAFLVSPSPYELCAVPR
# [4] = cytotoxicity toward NIH3T3 fibroblasts, dose response, counter-screen, cell-based, ATP luminescence, mouse fibroblasts (AID 2010); assay type: functional;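 also: cells exposed to compound for about 90 hours before reading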
# INS1 = experiment: beta cell apoptosis inhibitors, cytokine rescue, dose response, luminescence, retest (AID 449756); assay type: functional, cell-based; details: Rattus norvegicus;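 also: cell death triggered by IL-1 beta plus TNF-alpha plus IFN-gamma mixture; protective hits raise ATP signal compared with cytokine alone wells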
# [5] = inhibitors of intracellular T. cruzi replication, confirmation, NIH3T3 host cells, beta-gal luminescence (AID 2044); assay type: functional, cell-based;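 also: intracellular parasites grown in NIH/3T3 mouse fibroblasts as host cells; luminescent beta-galactosidase reporter signal from transgenic T. cruzi replicating inside host cells; inhibitors lower the luminescence signal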
# [6] = Luminescence Cell-Based Dose Retest to Confirm Inhibitors of Cancer Stem Cells. [Related pubchem assays (depositor defined):AID2717, AID2721]; assay type: functional; details: Homo sapiens
# [7] = inhibitors of firefly luciferase expression or activity, dose response, H4 neuroglioma cells, luminescence (AID 1990); assay type: functional, cell-based
# [8] = inhibitors of SNCA 5'UTR-driven reporter translation, confirmation, H4 neuroglioma cells, luminescence (AID 1988); assay type: functional, cell-based
# [9] = Luminescence Cell-Based Dose Response HTS to Identify Inhibitors of 5'UTR Stem-Loop Driven Prion Protein mRNA Translation in H4 Neuroglioblastoma Cells. [Related pubchem assays: 1827 (Project Summary), 1813 (Primary HTS)]; assay type: functional
# Streptococcus = experiment: Group A Streptococcus viability loss, dose response, counter-screen for streptokinase expression inhibitor project, luminescence, BacTiterGlo (AID 1915); assay type: functional, organism-based;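 also: potency for reduction of bacterial viability or growth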
# Streptokinase A = target: T4, Streptokinase A (Streptococcus pyogenes serotype M1, UniProt P10520); experiment: S. pyogenes streptokinase expression inhibitors, potency, dose response, plasminogen activation absorbance, OD405 (AID 1914); assay type: functional, Streptococcus pyogenes M1 GAS;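 also: secreted streptokinase activity via plasminogen activation per viability signal from cell pellet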
# T4 sequence (P10520 whole entry): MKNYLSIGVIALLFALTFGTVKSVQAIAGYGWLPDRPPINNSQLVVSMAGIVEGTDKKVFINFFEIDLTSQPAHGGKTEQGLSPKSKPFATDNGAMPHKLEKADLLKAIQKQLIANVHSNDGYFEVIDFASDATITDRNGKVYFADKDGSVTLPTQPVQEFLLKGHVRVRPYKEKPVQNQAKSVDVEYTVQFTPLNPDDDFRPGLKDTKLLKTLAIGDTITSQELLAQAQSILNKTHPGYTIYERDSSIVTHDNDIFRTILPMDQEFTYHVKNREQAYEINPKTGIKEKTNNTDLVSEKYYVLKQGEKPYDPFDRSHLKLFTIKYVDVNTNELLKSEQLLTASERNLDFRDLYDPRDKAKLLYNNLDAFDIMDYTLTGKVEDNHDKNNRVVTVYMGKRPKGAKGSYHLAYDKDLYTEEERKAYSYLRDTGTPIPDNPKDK
# [10] = tested on: Streptococcus sp. 'group A'; experiment: growth inhibition of control SK(-) GAS strain, dose response, counter-screen for streptokinase expression inhibitor project, luminescence, kanamycin, BacTiterGlo, confirmation (AID 1900); assay type: functional, organism-based
compound,measurement,setting,value
CCOC(=O)C(Cc1ccccc1)NC(=O)CCc1nnc2ccc(N3CCCC3)nn12 (centres undefined),IC50,[1],> 47.1 µM (inactive)
same,EC50,[2],> 53 µM (inactive)
Clc1ccc(-c2nnc(Sc3nc4ccccc4o3)c3ccccc23)cc1,AC50,[3],1.58 µM (active)
same,EC50,Protein RecA,0.405 µM (active)
Cc1ccc(CN2CC(C(=O)NCCCSc3ccccc3)CC2=O)cc1 (centres undefined),IC50,[1],> 47.1 µM (inactive)
same,EC50,[2],> 53 µM (inactive)
Cc1ccc(NC(=O)c2c(C(F)(F)F)nn(C)c2SCc2cccc(C(F)(F)F)c2)cc1C,AC50,Cytochrome P450 2D6,14.1 µM (inconclusive)
same,EC50,[4],> 60 µM (inconclusive)
same,AC50,INS1,5.94 µM (active)
same,EC50,[5],2.52 µM (active)
CCN(CC)C(=O)CSc1ncnc2c1cnn2-c1ccccc1,IC50,[1],> 47.1 µM (inactive)
same,EC50,[2],> 53 µM (inactive)
COc1ccc(OCc2cc(C(=O)NC3CCOC(C)(C)C3)no2)c2ccccc12 (centres undefined),AC50,[3],4.88 µM (active)
same,EC50,Protein RecA,4.57 µM (active)
CCN=C(S)Nc1cc(OC)c(NC(=O)c2ccco2)cc1OC,IC50,[1],> 47.1 µM (inactive)
same,EC50,[2],> 53 µM (inactive)
COC(=O)c1ccc(NC(=O)c2cccnc2)cc1,AC50,INS1,5.28 µM (active)
Cc1ccc(NC(=O)Nc2cccc([N+](=O)[O-])c2)cc1F,EC50,[4],> 60 µM (not active)
same,AC50,INS1,6.65 µM (active)
same,EC50,[5],2.49 µM (active)
O=C(Nc1cccn(Cc2c(Cl)cccc2Cl)c1=O)c1c(Cl)cccc1Cl,IC50,[1],9.97 µM (active)
same,EC50,[2],> 53 µM (inactive)
FC(F)(F)c1ccc2c(c1)N(CCCN1CCN(CCCl)CC1)c1ccccc1S2,AC50,[3],9.54 µM (active)
same,EC50,Protein RecA,3.6 µM (active)
CCOC(=O)c1c(NC(=O)CCl)sc(C(=O)N(CC)CC)c1C,AC50,[3],2.19 µM (active)
same,EC50,Protein RecA,43.6 µM (active)
Cn1c(=O)n(C)c2cc(S(=O)(=O)Nc3cc(Cl)ccc3O)ccc21,IC50,[1],> 47.1 µM (inactive)
same,EC50,[2],> 53 µM (inactive)
O=c1cc(CNc2cc(C(F)(F)F)cc(C(F)(F)F)c2)nc2sccn12,AC50,[6],1.99 µM (active)
same,EC50,[7],17.5 µM (active)
same,EC50,[8],> 120 µM (not active)
same,EC50,[9],39.2 µM (active)
O=C(Nc1cccc(F)c1)N1CCC(c2ccccc2)CC1,AC50,[3],53.5 µM (active)
same,EC50,Protein RecA,> 380 µM (inactive)
COC(=O)c1c(NC(=O)/C=C/C(=O)O)sc(C)c1-c1ccc(C)cc1,AC50,[3],33.7 µM (active)
same,EC50,Protein RecA,11.1 µM (active)
COC(=O)c1ccc(CNC(=O)COC(=O)CC23CC4CC(CC(Br)(C4)C2)C3)cc1,IC50,[1],> 47.1 µM (inactive)
same,EC50,[2],> 53 µM (inactive)
c1ccc(-c2ccc(C3CCCN3)cc2)cc1 (centres undefined),AC50,[3],> 380 µM (inactive)
same,EC50,Protein RecA,> 380 µM (inactive)
Oc1cc(-c2ccc(N3CCCCC3)nc2)cc2cccnc12,AC50,INS1,3.18 µM (active)
Cn1cccc1C1C=C(c2ccc(C(C)(C)C)cc2)Nc2ncnn21 (centres undefined),AC50,INS1,3.45 µM (active)
CC(CNC(=O)c1ccc(OC2CCN(Cc3ccccn3)CC2)cc1)Oc1cccnc1 (centres undefined),AC50,INS1,5.59 µM (active)
Cc1ccc(N2C(=O)CC(=O)NC2=O)c(C)c1,IC50,[1],> 47.1 µM (inactive)
same,EC50,[2],> 53 µM (inactive)
CN(Cc1ccccn1)C(=O)C1CCC(=O)N(Cc2cccc(C(F)(F)F)c2)C1 (centres undefined),IC50,[1],> 47.1 µM (inactive)
same,EC50,[2],> 53 µM (inactive)
O=C(CCC(=O)Nc1ccc(Br)cc1)N/N=C/c1ccccc1O,EC50,Streptococcus,14.3 µM (active)
same,EC50,[7],12.6 µM (active)
same,EC50,[8],8.55 µM (active)
same,EC50,Streptokinase A,> 150 µM (not active)
same,EC50,[9],33.8 µM (active)
same,AC50,INS1,3.65 µM (active)
same,EC50,[10],5.1 µM (active)
